# Tested on: Phosphorylation of STAT6 in human A549 cells
# Test: Phosphorylated STAT6 (pSTAT6) flow cytometry assay in human A549 cells
# Type: cell-based
# Conditions: read-out: STAT6 IL4 pSTAT6 assay in A549 cells: Average IC50
# Description: Example 3. Phosphorylated STAT6 (pSTAT6) Flow Cytometry Assay in Human A549 Cells
# Phosphorylation of STAT6 in human A549 cells was quantitatively measured using flow cytometry technology.
row,Structure (SMILES),IC50 [nM]
1,COc1cc(F)cnc1N1CCN(C(=O)c2cc3c(Cl)cc(C4=CCCN(C(=O)CCn5ccnn5)C4)c(F)c3[nH]2)CC1 [Example I-499],10000 to 100000
2,COc1ccncc1-c1cc(C2=CCCN(C(=O)CCn3ccnn3)C2)c(F)c2[nH]c(C(=O)N3CCN(c4ncc(F)cc4OC)CC3)cc12 [Example I-428],< 100
3,CCc1cc(C)ncc1-c1cc(C2=CCCN(C(=O)CCc3nccs3)C2)c(F)c2[nH]c(C(=O)N3CCN(c4ncc(F)cc4OC)CC3)cc12 [Example I-525],< 100
4,COc1ccccc1N1CCN(C(=O)c2cc3c(-c4cnc5ccccc5c4OC)cc(C4=CCCN(C(=O)CCn5ccnn5)C4)c(F)c3[nH]2)CC1 [Example I-448],< 100
5,CCc1nc(C)ccc1-c1cc(C(=O)N2Cc3cnn(CC)c3C2)cc2cc(C3=CCCN(C(=O)CCn4ccnn4)C3)n(CC3CC3)c12 [Example I-535],> 100000
6,CCOc1ccccc1-c1cc(C2=CCCN(C(=O)CCn3ccnn3)C2)c(F)c2[nH]c(C(=O)N3CCN(c4ncccc4OC)CC3)cc12 [Example I-412],> 100000
7,COc1ccncc1-c1cc(C2=CCCN(C(=O)CCn3ccnn3)C2)c(F)c2[nH]c(C(=O)N3CCN(c4nc(Cl)ccc4OC)CC3)cc12 [Example I-491],> 100000
8,COc1ccccc1-c1cc(C2=CCCN(C(=O)CCn3ccnn3)C2)c(F)c2[nH]c(C(=O)N3CCN(c4ccccc4OC(F)(F)F)CC3)cc12 [Example I-420],100 to 1000
9,CCn1cc2c(n1)CN(C(=O)c1cc3c(-c4ccccc4OC)cc(C4=CCCN(C(=O)CCn5ccnn5)C4)c(F)c3[nH]1)C2 [Example I-505],10000 to 100000
10,COc1ccncc1-c1cc(C2=CCCN(C(=O)CCn3ccnn3)C2)c(F)c2[nH]c(C(=O)N3CCN(c4cccc(F)c4OC)CC3)cc12 [Example I-563],< 100
11,COc1ccccc1-c1cc(C2=CCCN(C(=O)CCn3ccnn3)C2)c(F)c2sc(C(=O)N3CCN(c4ncccc4OC)CC3)cc12 [Example I-346],< 100

# The remaining lines, values ahead:
row,IC50 [nM],Structure (SMILES)
1,< 100,COc1ccccc1-c1cc(C2=CCCN(C(=O)CCn3ccnn3)C2)c(F)c2[nH]c(C(=O)N3CCN(c4cc(F)ccn4)CC3)cc12 [Example I-934]
2,< 100,Cc1c[nH]c2ncc(-c3cc(C4=CCCN(C(=O)CCn5ccnn5)C4)cc4cc(C(=O)N(C)C)oc34)cc12 [Example I-1085]
3,< 100,CCc1ccncc1-c1cc(C2=CCCN(C(=O)CC(=O)O)C2)c(F)c2[nH]c(C(=O)N3Cc4cnn(CC)c4C3)cc12 [Example I-787]
4,< 100,COc1ccccc1N1CCN(C(=O)c2cc3c(-c4cccnc4OC)cc(C4=CCCN(C(=O)CCn5ccnn5)C4)c(F)c3[nH]2)CC1 [Example I-599]
5,< 100,COc1cc(F)cnc1N1CCN(C(=O)c2cc3c(C4=CCN(C5CC5)CC4)cc(C4=CCCN(C(=O)CCn5ccnn5)C4)c(F)c3[nH]2)CC1 [Example I-1131]
6,< 100,COc1cc(F)cnc1N1CCN(C(=O)c2cc3c(-c4ccc5c(c4)OCCCO5)cc(C4=CCCN(C(=O)CCn5ccnn5)C4)c(F)c3[nH]2)CC1 [Example I-1148]
7,< 100,Cc1ccccc1-c1cc(C2=CCCN(C(=O)CCn3ccnn3)C2)cc2cc(C(=O)N(C)C)oc12 [Example I-1086]
8,100 to 1000,CCC1=C(c2cc(C3=CCCN(C(=O)CCn4ccnn4)C3)c(F)c3[nH]c(C(=O)N4CCN(c5ncc(F)cc5OC)CC4)cc23)CCCC1 [Example I-1172]
9,< 100,COc1cc(N(C)C)ccc1-c1cc(C2=CCCN(C(=O)CCn3ccnn3)C2)c(F)c2[nH]c(C(=O)N3CCN(c4ccccc4OC)CC3)cc12 [Example I-610]
10,< 100,COc1cc(F)cnc1N1CCN(C(=O)c2cc3c(-c4ccc(-c5cccnc5)cc4)cc(C4=CCCN(C(=O)CCn5ccnn5)C4)c(F)c3[nH]2)CC1 [Example I-1152]
11,< 100,COc1cc(F)cnc1N1CCN(C(=O)c2cc(-c3cccnc3OC)c3c(c2)cc(C2=CCCN(C(=O)CCn4ccnn4)C2)n3CC2CC2)CC1 [Example I-726]
12,100 to 1000,CN(C)C(=O)c1cc2ccc(C3=CCCN(C(=O)CCn4cccn4)C3)cc2[nH]1 [Example I-826]
